The record followed here is patent US10314823B2, “Substituted 1,2-dihydro-3H-pyrrolo[1,2-c]imidazol-3-one antibacterial compounds” (IDORSIA PHARMACEUTICALS LTD, priority 2015, dated 2019).

Test in all cases: Bacterial growth minimal inhibitory concentration (CLSI broth microdilution)
Holding throughout (type): cell-based

The subject of one assay is P. aeruginosa ATCC27853. The conditions noted are these: Pseudomonas aeruginosa, ATCC27853; quinolone-sensitive strain; cation-adjusted Mueller-Hinton Broth. As for the experimental part: (§1) Minimal Inhibitory Concentrations (MICs; mg/L) were determined in cation-adjusted Mueller-Hinton Broth by a microdilution method following the description given in “Methods for Dilution Antimicrobial Susceptibility Tests for Bacteria that Grow Aerobically”, Approved standard, 7th ed., Clinical and Laboratory Standards Institute (CLSI) Document M7-A7, Wayne, Pa., USA (2006).
(§2) All Reference Example compounds were tested against several Gram-negative bacteria. K. pneumoniae A-651 is a multiply resistant strain (in particular quinolone-resistant), while E. coli ATCC25922 and P. aeruginosa ATCC27853 are quinolone-sensitive strains. The corresponding antibacterial test results are given in Table 1 hereafter (MICs in mg/L).

In a further assay the test system is K. pneumoniae A-651. The conditions noted are these: Klebsiella pneumoniae, A651; multiply resistant strain (in particular quinolone-resistant); cation-adjusted Mueller-Hinton Broth. As for the experimental part:
as §1, §2

Another assay has as its system E. coli ATCC25922. To be noted: Escherichia coli, ATCC25922; quinolone-sensitive strain; cation-adjusted Mueller-Hinton Broth. How it is done: as §1, §2

SMILES strings stand for the structures. Converted amounts (≈) assume the structure as drawn.

The term MIC denotes the lowest concentration found to suppress growth. Low values mean inhibition by little substance, high ones a need for much substance. For the molecule `C[C@@](CCN1Cc2cc(C#Cc3ccc(CN4CC(CO)OC4=O)cc3)cn2C1=O)(C(=O)NO)S(C)(=O)=O` (mixture of isomers) [Example 12, (2R)—N-hydroxy-4-(6-((4-((RS)-(5-(hydroxymethyl)-2-oxooxazolidin-3-yl)methyl)phenyl)ethynyl)-3-oxo-1H-pyrrolo[1,2-c]imidazol-2(3H)-yl)-2-methyl-2-(methylsulfonyl)butanamide], the MIC with P. aeruginosa ATCC27853 was found to be 4 µg/mL; against K. pneumoniae A-651, 2 µg/mL; against E. coli ATCC25922, 1 µg/mL.
The matching figures for `COCCN(C)CC(O)c1ccc(C#Cc2cc3n(c2)C(=O)N(CC[C@](C)(C(=O)NO)S(C)(=O)=O)C3)cc1` (mixture of isomers) [Example 28, (2R)—N-hydroxy-4-(6-((RS)-(4-(1-hydroxy-2-((2-methoxyethyl)(methyl)amino)ethyl)phenyl)ethynyl)-3-oxo-1H-pyrrolo[1,2-c]imidazol-2(3H)-yl)-2-methyl-2-(methylsulfonyl)butanamide]: 2 µg/mL, 8 µg/mL and 1 µg/mL.
The matching figures for `C[C@@](CCN1Cc2cc(C#CC#CC3(F)CCN(C4CC4)C3)cn2C1=O)(C(=O)NO)S(C)(=O)=O` (mixture of isomers) [Example 76, (2R)-4-(6-(((3RS)-1-cyclopropyl-3-fluoropyrrolidin-3-yl)buta-1,3-diyn-1-yl)-3-oxo-1H-pyrrolo[1,2-c]imidazol-2(3H)-yl)-N-hydroxy-2-methyl-2-(methylsulfonyl)butanamide]: 2 µg/mL, 0.25 µg/mL and 0.125 µg/mL.
The matching figures for `C[C@@](CCN1Cc2cc(C#CC#CC3(F)CCN(CCO)C3)cn2C1=O)(C(=O)NO)S(C)(=O)=O` (mixture of isomers) [Example 77, (2R)-4-(6-(((3RS)-3-fluoro-1-(2-hydroxyethyl)pyrrolidin-3-yl)buta-1,3-diyn-1-yl)-3-oxo-1H-pyrrolo[1,2-c]imidazol-2(3H)-yl)-N-hydroxy-2-methyl-2-(methylsulfonyl)butanamide]: 1 µg/mL, 1 µg/mL and 0.5 µg/mL.
With `C[C@@](CCN1Cc2cc(C#CC#CC3(F)CCNC3)cn2C1=O)(C(=O)NO)S(C)(=O)=O` (mixture of isomers) [Example 78, (2R)-4-(6-(((3RS)-3-fluoropyrrolidin-3-yl)buta-1,3-diyn-1-yl)-3-oxo-1H-pyrrolo[1,2-c]imidazol-2(3H)-yl)-N-hydroxy-2-methyl-2-(methylsulfonyl)butanamide], the MIC in the assay with P. aeruginosa ATCC27853, against K. pneumoniae A-651 and against E. coli ATCC25922 was 1 µg/mL each time.
In the case of `CN1CCC(C)(C#CC#Cc2cc3n(c2)C(=O)N(CC[C@](C)(C(=O)NO)S(C)(=O)=O)C3)C1` (mixture of isomers) [Example 82, (2R)-4-(6-(((3RS)-1,3-dimethylpyrrolidin-3-yl)buta-1,3-diyn-1-yl)-3-oxo-1H-pyrrolo[1,2-c]imidazol-2(3H)-yl)-N-hydroxy-2-methyl-2-(methylsulfonyl)butanamide], the MIC against P. aeruginosa ATCC27853 amounted to 4 µg/mL; with K. pneumoniae A-651 it was 2 µg/mL; against E. coli ATCC25922 it was 2 µg/mL.
Take `CN1CCC(C#CC#Cc2cc3n(c2)C(=O)N(CC[C@](C)(C(=O)NO)S(C)(=O)=O)C3)C1` (mixture of isomers) [Example 83, (2R)—N-hydroxy-2-methyl-4-(6-(((3RS)-1-methylpyrrolidin-3-yl)buta-1,3-diyn-1-yl)-3-oxo-1H-pyrrolo[1,2-c]imidazol-2(3H)-yl)-2-(methylsulfonyl)butanamide]: the figures for the MIC in the assay on P. aeruginosa ATCC27853, against K. pneumoniae A-651 and in the assay on E. coli ATCC25922 were 1 µg/mL, 1 µg/mL and 2 µg/mL, respectively.
With `C[C@@](CCN1Cc2cc(C#Cc3ccc(CN4CC[C@H](N)[C@@H](F)C4)cc3)cn2C1=O)(C(=O)NO)S(C)(=O)=O` (relative stereo) [Example 13, (2R)-4-(6-((4-(((3S*,4S*)-4-amino-3-fluoropiperidin-1-yl)methyl)phenyl)ethynyl)-3-oxo-1H-pyrrolo[1,2-c]imidazol-2(3H)-yl)-N-hydroxy-2-methyl-2-(methylsulfonyl)butanamide], the MIC against P. aeruginosa ATCC27853, against K. pneumoniae A-651 and against E. coli ATCC25922 was 1 µg/mL (≈ 1.83 µM) throughout.
In the case of `C[C@@](CCN1Cc2cc(C#Cc3ccc(CN4CC[C@H](O)[C@@H](F)C4)cc3)cn2C1=O)(C(=O)NO)S(C)(=O)=O` (relative stereo) [Example 36, (2R)-4-(6-((4-(((3S*,4S*)-3-fluoro-4-hydroxypiperidin-1-yl)methyl)phenyl)ethynyl)-3-oxo-1H-pyrrolo[1,2-c]imidazol-2(3H)-yl)-N-hydroxy-2-methyl-2-(methylsulfonyl)butanamide], the results for the MIC in the assay on P. aeruginosa ATCC27853, with K. pneumoniae A-651 and against E. coli ATCC25922 were 1 µg/mL (≈ 1.83 µM), 0.5 µg/mL (≈ 0.915 µM) and 0.25 µg/mL (≈ 0.457 µM), respectively.
Turning to `C[C@@](CCN1Cc2cc(C#Cc3ccc(CN4CC[C@H](O)[C@H](F)C4)cc3)cn2C1=O)(C(=O)NO)S(C)(=O)=O` (relative stereo) [Example 42, (2R)-4-(6-((4-(((3R*,4S*)-3-fluoro-4-hydroxypiperidin-1-yl)methyl)phenyl)ethynyl)-3-oxo-1H-pyrrolo[1,2-c]imidazol-2(3H)-yl)-N-hydroxy-2-methyl-2-(methylsulfonyl)butanamide], the MIC came to 2 µg/mL (≈ 3.66 µM) against P. aeruginosa ATCC27853, 1 µg/mL (≈ 1.83 µM) in the assay with K. pneumoniae A-651 and 0.5 µg/mL (≈ 0.915 µM) in the assay on E. coli ATCC25922.
In the case of `CN1C[C@H](O)[C@@H](C#CC#Cc2cc3n(c2)C(=O)N(CC[C@](C)(C(=O)NO)S(C)(=O)=O)C3)C1` (relative stereo) [Example 99, (2R)—N-hydroxy-4-(6-(((3S*,4R*)-4-hydroxy-1-methylpyrrolidin-3-yl)buta-1,3-diyn-1-yl)-3-oxo-1H-pyrrolo[1,2-c]imidazol-2(3H)-yl)-2-methyl-2-(methylsulfonyl)butanamide], the MIC against P. aeruginosa ATCC27853, with K. pneumoniae A-651 and in the assay on E. coli ATCC25922 was 2 µg/mL (≈ 4.32 µM) each time.
`C[C@@](CCN1Cc2cc(C#Cc3ccc([C@@H](O)CN4CCOCC4)cc3)cn2C1=O)(C(=O)NO)S(C)(=O)=O` (single isomer, unassigned) [Example 1]: the MIC against P. aeruginosa ATCC27853 came out at 2 µg/mL (≈ 3.67 µM); against K. pneumoniae A-651, 2 µg/mL (≈ 3.67 µM); against E. coli ATCC25922, 1 µg/mL (≈ 1.84 µM).
For the molecule `C[C@@](CCN1Cc2cc(C#Cc3ccc([C@H](O)CN4CCOCC4)cc3)cn2C1=O)(C(=O)NO)S(C)(=O)=O` (single isomer, unassigned) [Example 2], the MIC with P. aeruginosa ATCC27853, against K. pneumoniae A-651 and with E. coli ATCC25922 was 1 µg/mL (≈ 1.84 µM) throughout.
For the molecule `CN1CC[C@@](F)(C#CC#Cc2cc3n(c2)C(=O)N(CC[C@](C)(C(=O)NO)S(C)(=O)=O)C3)C1.O=C(O)C(F)(F)F` (single isomer, unassigned) [Example 71], the MIC was 2 µg/mL with P. aeruginosa ATCC27853, 0.5 µg/mL against K. pneumoniae A-651 and 0.25 µg/mL against E. coli ATCC25922.
The like results for `CN1CC[C@](F)(C#CC#Cc2cc3n(c2)C(=O)N(CC[C@](C)(C(=O)NO)S(C)(=O)=O)C3)C1.O=C(O)C(F)(F)F` (single isomer, unassigned) [Example 72] were, in that order, 2 µg/mL, 0.5 µg/mL and 0.5 µg/mL.
The matching figures for `CN1C[C@@H](C#CC#Cc2cc3n(c2)C(=O)N(CC[C@](C)(C(=O)NO)S(C)(=O)=O)C3)C[C@@H]1CO` (single isomer, unassigned) [Example 94]: 0.5 µg/mL (≈ 1.05 µM), 1 µg/mL (≈ 2.1 µM) and 1 µg/mL (≈ 2.1 µM).
